This is an account of results in ChEMBL document CHEMBL4052677, “A small-molecule screen identifies the antitrypanosomal agent suramin and analogues NF023 and NF449 as inhibitors of STAT5a/b” (Bioorg Med Chem Lett, 2017).

For assay [1], the target named is T1, Signal transducer and activator of transcription 1-alpha/beta (Homo sapiens, UniProt P42224).
T1 sequence (P42224 whole entry): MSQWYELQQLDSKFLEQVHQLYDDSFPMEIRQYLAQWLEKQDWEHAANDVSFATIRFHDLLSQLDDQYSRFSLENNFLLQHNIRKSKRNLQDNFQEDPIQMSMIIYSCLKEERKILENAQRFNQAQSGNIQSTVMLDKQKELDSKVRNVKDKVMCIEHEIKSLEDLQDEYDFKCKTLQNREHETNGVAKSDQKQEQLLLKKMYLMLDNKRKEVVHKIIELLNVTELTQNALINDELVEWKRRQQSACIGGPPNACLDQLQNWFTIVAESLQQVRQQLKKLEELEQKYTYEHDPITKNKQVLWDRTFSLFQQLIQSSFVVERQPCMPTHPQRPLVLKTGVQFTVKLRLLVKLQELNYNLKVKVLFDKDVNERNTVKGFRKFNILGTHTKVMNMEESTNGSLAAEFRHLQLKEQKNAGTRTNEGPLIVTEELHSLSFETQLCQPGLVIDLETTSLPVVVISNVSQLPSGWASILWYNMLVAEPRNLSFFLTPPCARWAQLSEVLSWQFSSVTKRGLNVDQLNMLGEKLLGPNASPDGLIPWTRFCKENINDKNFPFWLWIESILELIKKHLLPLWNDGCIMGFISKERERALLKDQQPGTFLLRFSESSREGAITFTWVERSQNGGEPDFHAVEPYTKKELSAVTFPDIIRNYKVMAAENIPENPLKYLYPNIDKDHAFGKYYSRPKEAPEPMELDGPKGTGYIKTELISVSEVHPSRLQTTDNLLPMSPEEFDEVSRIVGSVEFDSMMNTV
The assay can be described thus: Inhibition of 5-carboxyfluorescein-GpYDKPHVL-OH binding to STAT1 (unknown origin) pre-incubated for 1 hr before fluorescent-labelled peptide addition by fluorescence polarization assay. (In fluorescence polarisation assays a small probe gives low polarisation when free and higher when bound to something large.)

In assay [2] the target is T2, Signal transducer and activator of transcription 5B (Homo sapiens, UniProt P51692).
T2 sequence (P51692 whole entry): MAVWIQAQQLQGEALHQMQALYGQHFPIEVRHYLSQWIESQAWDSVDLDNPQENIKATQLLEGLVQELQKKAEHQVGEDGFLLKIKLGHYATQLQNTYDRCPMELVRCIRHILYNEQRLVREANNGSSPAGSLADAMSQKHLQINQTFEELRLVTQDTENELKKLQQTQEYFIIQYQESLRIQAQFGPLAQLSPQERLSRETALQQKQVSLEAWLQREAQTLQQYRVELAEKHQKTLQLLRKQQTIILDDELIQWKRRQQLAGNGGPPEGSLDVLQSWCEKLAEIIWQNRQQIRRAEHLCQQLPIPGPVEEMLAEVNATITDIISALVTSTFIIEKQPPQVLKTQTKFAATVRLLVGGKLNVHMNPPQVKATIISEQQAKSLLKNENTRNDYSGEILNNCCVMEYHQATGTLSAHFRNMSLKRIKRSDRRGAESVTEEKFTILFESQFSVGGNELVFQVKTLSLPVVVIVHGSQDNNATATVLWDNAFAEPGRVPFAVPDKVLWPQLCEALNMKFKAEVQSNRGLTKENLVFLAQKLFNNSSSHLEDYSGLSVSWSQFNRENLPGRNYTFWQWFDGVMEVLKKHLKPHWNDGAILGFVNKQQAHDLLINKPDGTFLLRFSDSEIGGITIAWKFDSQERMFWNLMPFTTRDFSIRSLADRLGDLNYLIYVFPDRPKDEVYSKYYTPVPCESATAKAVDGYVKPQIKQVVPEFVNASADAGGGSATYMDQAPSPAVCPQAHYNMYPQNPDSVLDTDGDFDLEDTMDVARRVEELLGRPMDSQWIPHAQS
The assay can be described thus: Inhibition of 5-carboxyfluorescein-GpYLVLDKW-OH binding to STAT5B SH2 domain (unknown origin) pre-incubated for 1 hr before fluorescent-labelled peptide addition by fluorescence polarization assay.

In assay [3] the target is T3, Signal transducer and activator of transcription 5A (Homo sapiens) (UniProt P42229).
T3 sequence (whole entry): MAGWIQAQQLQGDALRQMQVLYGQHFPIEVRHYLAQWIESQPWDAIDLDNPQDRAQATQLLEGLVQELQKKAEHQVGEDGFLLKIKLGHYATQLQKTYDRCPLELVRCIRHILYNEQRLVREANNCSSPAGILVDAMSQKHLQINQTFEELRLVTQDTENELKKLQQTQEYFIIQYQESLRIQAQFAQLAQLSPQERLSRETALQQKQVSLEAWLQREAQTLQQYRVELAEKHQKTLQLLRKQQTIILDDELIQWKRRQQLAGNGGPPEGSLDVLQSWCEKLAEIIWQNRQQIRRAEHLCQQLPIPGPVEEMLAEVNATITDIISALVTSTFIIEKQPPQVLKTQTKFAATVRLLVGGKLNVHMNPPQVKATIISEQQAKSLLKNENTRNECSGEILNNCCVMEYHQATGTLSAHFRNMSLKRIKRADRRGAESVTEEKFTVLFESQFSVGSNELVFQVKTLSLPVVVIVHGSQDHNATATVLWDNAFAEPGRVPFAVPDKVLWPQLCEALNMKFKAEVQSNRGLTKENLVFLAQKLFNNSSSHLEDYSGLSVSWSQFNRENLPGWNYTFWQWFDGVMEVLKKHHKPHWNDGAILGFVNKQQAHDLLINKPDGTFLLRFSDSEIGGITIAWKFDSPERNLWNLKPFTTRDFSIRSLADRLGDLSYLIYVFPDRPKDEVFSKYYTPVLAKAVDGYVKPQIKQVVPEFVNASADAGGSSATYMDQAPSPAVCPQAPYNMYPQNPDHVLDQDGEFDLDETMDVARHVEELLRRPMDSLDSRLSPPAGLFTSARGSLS
The assay can be described thus: Inhibition of 5-carboxyfluorescein-GpYLVLDKW-OH binding to C-terminal 6x-His-tagged and an N-terminal maltose-binding protein-tagged STAT5A SH2 domain (137 to 507 residues) (unknown origin) expressed in Escherichia coli Rosetta BL21 DE3 at 50 uM pre-incubated for 1 hr before fluorescent-labelled peptide addition by fluorescence polarization assay.

The target in assay [4] is T4, Signal transducer and activator of transcription 5A (Homo sapiens, UniProt P42229).
T4 sequence (P42229 whole entry): T3 sequence (whole entry)
Description: Inhibition of 5-carboxyfluorescein-GpYLVLDKW-OH binding to C-terminal 6x-His-tagged and an N-terminal maltose-binding protein-tagged STAT5A SH2 domain (137 to 507 residues) (unknown origin) expressed in Escherichia coli Rosetta BL21 DE3 pre-incubated for 1 hr before fluorescent-labelled peptide addition by fluorescence polarization assay.

Assay [5] has as its target Signal transducer and activator of transcription 3 (Mus musculus, UniProt P42227). Description: Inhibition of 5-carboxyfluorescein-GpYLPQTV-NH2 binding to mouse STAT3 (127 to 722 residues) expressed in Escherichia coli Rosetta BL21 DE3 pre-incubated for 1 hr before fluorescent-labelled peptide addition by fluorescence polarization assay.

Each structure is given as a SMILES string. Active and inactive are the calls of the source. No cut-off for these calls is given here.

Sequence of Signal transducer and activator of transcription 3 (P42227 whole entry, the tested form may be a part): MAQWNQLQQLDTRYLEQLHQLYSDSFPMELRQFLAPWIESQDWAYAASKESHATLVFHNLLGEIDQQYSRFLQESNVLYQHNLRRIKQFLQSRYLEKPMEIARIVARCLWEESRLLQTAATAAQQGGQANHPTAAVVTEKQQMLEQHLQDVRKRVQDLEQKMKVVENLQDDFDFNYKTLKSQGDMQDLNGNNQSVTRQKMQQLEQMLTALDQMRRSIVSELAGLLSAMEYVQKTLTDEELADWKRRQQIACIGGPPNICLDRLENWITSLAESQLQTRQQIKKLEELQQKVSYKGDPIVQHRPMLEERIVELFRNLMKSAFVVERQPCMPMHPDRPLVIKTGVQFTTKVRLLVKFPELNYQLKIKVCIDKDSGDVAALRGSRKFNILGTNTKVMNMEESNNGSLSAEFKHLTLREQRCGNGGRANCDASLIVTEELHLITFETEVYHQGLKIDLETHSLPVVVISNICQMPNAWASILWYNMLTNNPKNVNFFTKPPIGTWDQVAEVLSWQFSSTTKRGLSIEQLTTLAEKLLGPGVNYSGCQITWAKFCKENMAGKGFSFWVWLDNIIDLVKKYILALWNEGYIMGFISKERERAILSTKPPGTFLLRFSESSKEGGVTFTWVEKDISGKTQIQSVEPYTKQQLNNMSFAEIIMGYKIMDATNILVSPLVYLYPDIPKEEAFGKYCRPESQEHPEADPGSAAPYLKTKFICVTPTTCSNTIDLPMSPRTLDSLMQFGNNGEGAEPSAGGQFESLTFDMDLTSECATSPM

The IC50 is the concentration that inhibits the measured activity by half. The low end stands for greater potency in that assay, the high end for weaker potency in that assay. On to `Cc1ccc(C(=O)Nc2ccc(S(=O)(=O)O)c3cc(S(=O)(=O)O)cc(S(=O)(=O)O)c23)cc1NC(=O)c1cccc(NC(=O)Nc2cccc(C(=O)Nc3cc(C(=O)Nc4ccc(S(=O)(=O)O)c5cc(S(=O)(=O)O)cc(S(=O)(=O)O)c45)ccc3C)c2)c1` [SURAMIN HEXASODIUM], for which the IC50 in assay [1] is 9.1 µM; in assay [2], 10.4 µM; in assay [4], 9.4 µM; in assay [5], > 100 µM. Besides, in assay [3], the inhibition entry is “Active”.
For `O=C(Nc1cc(C(=O)Nc2ccc(S(=O)(=O)O)cc2S(=O)(=O)O)cc(C(=O)Nc2ccc(S(=O)(=O)O)cc2S(=O)(=O)O)c1)Nc1cc(C(=O)Nc2ccc(S(=O)(=O)O)cc2S(=O)(=O)O)cc(C(=O)Nc2ccc(S(=O)(=O)O)cc2S(=O)(=O)O)c1` the same measures were 7.9 µM, 2.5 µM, 1.4 µM, > 100 µM and “Active”.
On the same counts, the results for `O=C(Nc1cccc(C(=O)Nc2ccc(S(=O)(=O)O)c3cc(S(=O)(=O)O)cc(S(=O)(=O)O)c23)c1)Nc1cccc(C(=O)Nc2ccc(S(=O)(=O)O)c3cc(S(=O)(=O)O)cc(S(=O)(=O)O)c23)c1` are 33.2 µM, 12.7 µM, 8.8 µM, > 100 µM and “Active”.
